Values of other authors, collected in patent US20140044685A1, “NUTRITIONAL COMPOSITIONS HAVING ALPHA-HICA AND CITRULLINE” (NESTEC S.A., priority 2011, published 2014).

Experiments:
[1] = malnourished aged animals
[2] = tested on: intestinal mammalian target of rapamycin (mTOR); conditions: piglet stressed with LPS; leading to increased protein synthesis and anti-inflammatory responses
[3] = piglet stressed with LPS

Row | SMILES | anabolic effect [1] | phosphorylation of intestinal mammalian target of rapamycin (mTOR) [2] | crypt depth [3] | villous height [3]
1 | NC(=O)NCCC[C@H](N)C(=O)O [Citrulline, citrulline] | anabolic effect | – | – | –
2 | O=C(O)CCC(=O)C(=O)O [AKG, α-ketoglutarate] | – | increased | reduced | increased
